Reference: ChEMBL document CHEMBL5331135, “Design, Synthesis, and Evaluation of Glucose Transporter Inhibitor-SN38 Conjugates for Targeting Colorectal Cancer” (J Med Chem, 2023)
The source made the active and inactive calls. No cut-off for these calls is given here.

Assays:
[1] = Toxicity in AOM/DSS-induced orthotopic CRC BALB/c mouse model assessed as body weight loss at 15 mg/kg, iv administered once every 2 days for 2 weeks; assay type: organism-based; conditions: in vivo, 336 h
COLO 205 [2] = experiment: Cytotoxicity against human COLO 205 cells incubated for 48 hrs in presence of SN38 by SRB assay; assay type: functional, cell-based; conditions: COLO 205, 48 h
HT-29 [3] = experiment: Cytotoxicity against human HT-29 cells incubated for 48 hrs in presence of SN38 by SRB assay; assay type: functional, cell-based; conditions: HT-29, 48 h
HCT-116 [4] = experiment: Cytotoxicity against human HCT-116 cells incubated for 48 hrs in presence of SN38 by SRB assay; assay type: functional, cell-based; conditions: HCT-116, 48 h
[5] = Toxicity in AOM/DSS-induced orthotopic CRC BALB/c mouse model assessed as lesions in lung at 15 mg/kg, iv administered once every 2 days for 2 weeks by H&E staining based analysis; assay type: organism-based; conditions: in vivo, 336 h
[6] = Toxicity in AOM/DSS-induced orthotopic CRC BALB/c mouse model assessed as lesions in heart at 15 mg/kg, iv administered once every 2 days for 2 weeks by H&E staining based analysis; assay type: organism-based; conditions: in vivo, 336 h
[7] = Toxicity in AOM/DSS-induced orthotopic CRC BALB/c mouse model assessed as lesions in spleen at 15 mg/kg, iv administered once every 2 days for 2 weeks by H&E staining based analysis; assay type: organism-based; conditions: in vivo, 336 h
COLO 205 [8] = experiment: Cytotoxicity against human COLO 205 cells incubated for 48 hrs by SRB assay; assay type: functional, cell-based; conditions: COLO 205, 48 h
[9] = Toxicity in AOM/DSS-induced orthotopic CRC BALB/c mouse model assessed as lesions in liver at 15 mg/kg, iv administered once every 2 days for 2 weeks by H&E staining based analysis; assay type: organism-based; conditions: in vivo, 336 h
HT-29 [10] = experiment: Cytotoxicity against human HT-29 cells incubated for 48 hrs by SRB assay; assay type: functional, cell-based; conditions: HT-29, 48 h
[11] = Toxicity in AOM/DSS-induced orthotopic CRC BALB/c mouse model assessed as lesions in kidney at 15 mg/kg, iv administered once every 2 days for 2 weeks by H&E staining based analysis; assay type: organism-based; conditions: in vivo, 336 h
[12] = Toxicity in AOM/DSS-induced orthotopic CRC BALB/c mouse model assessed as lesions in stomach at 15 mg/kg, iv administered once every 2 days for 2 weeks by H&E staining based analysis; assay type: organism-based; conditions: in vivo, 336 h
HCT-116 [13] = experiment: Cytotoxicity against human HCT-116 cells incubated for 48 hrs by SRB assay; assay type: functional, cell-based; conditions: HCT-116, 48 h
[14] = Toxicity in AOM/DSS-induced orthotopic CRC BALB/c mouse model assessed as lesions in spleen at 20 to 40 mg/kg, iv administered once every 2 days for 2 weeks by H&E staining based analysis; assay type: organism-based; conditions: in vivo, 336 h, dose 20-40 mg/kg
[15] = Toxicity in AOM/DSS-induced orthotopic CRC BALB/c mouse model assessed as lesions in kidney at 20 to 40 mg/kg, iv administered once every 2 days for 2 weeks by H&E staining based analysis; assay type: organism-based; conditions: in vivo, 336 h, dose 20-40 mg/kg
[16] = Toxicity in AOM/DSS-induced orthotopic CRC BALB/c mouse model assessed as lesions in lung at 20 to 40 mg/kg, iv administered once every 2 days for 2 weeks by H&E staining based analysis; assay type: organism-based; conditions: in vivo, 336 h, dose 20-40 mg/kg
[17] = Antitumor activity against AOM/DSS-induced orthotopic CRC BALB/c mouse model assessed as tumor growth inhibition at 20 mg/kg, iv administered once every 2 days for 2 weeks in presence of SGLT inhibitor by dissecting microscopic analysis relative to control; assay type: functional, Colorectal cancer cell; set-up: scale not given: the % may be the effect or the level left
[18] = Toxicity in AOM/DSS-induced orthotopic CRC BALB/c mouse model assessed as lesions in liver at 20 to 40 mg/kg, iv administered once every 2 days for 2 weeks by H&E staining based analysis; assay type: organism-based; conditions: in vivo, 336 h, dose 20-40 mg/kg
[19] = Toxicity in AOM/DSS-induced orthotopic CRC BALB/c mouse model assessed as body weight loss at 40 mg/kg, iv administered once every 2 days for 2 weeks; assay type: organism-based; conditions: in vivo, 336 h
[20] = Toxicity in AOM/DSS-induced orthotopic CRC BALB/c mouse model assessed as lesions in stomach at 20 to 40 mg/kg, iv administered once every 2 days for 2 weeks by H&E staining based analysis; assay type: organism-based; conditions: in vivo, 336 h, dose 20-40 mg/kg
[21] = Toxicity in AOM/DSS-induced orthotopic CRC BALB/c mouse model assessed as lesions in heart at 20 to 40 mg/kg, iv administered once every 2 days for 2 weeks by H&E staining based analysis; assay type: organism-based; conditions: in vivo, 336 h, dose 20-40 mg/kg
[22] = Drug uptake in human COLO 205 cells assessed as drug internalization in presence of 4.5 g/L glucose by fluorescence based assay; assay type: ADME, cell-based
[23] = Stability in human plasma assessed as half life by RP-HPLC analysis; assay type: ADME, cell-free
[24] = Stability in human plasma assessed as formation of carboxylate product measured for 72 hrs by RP-HPLC analysis; assay type: ADME, cell-free
[25] = Antitumor activity against AOM/DSS-induced orthotopic CRC BALB/c mouse model assessed as tumor growth inhibition at 40 mg/kg, iv administered once every 2 days for 2 weeks in presence of SGLT inhibitor by dissecting microscopic analysis relative to control; assay type: functional, Colorectal cancer cell; set-up: scale not given: the % may be the effect or the level left
[26] = Prodrug conversion in brain of BALB/c mouse assessed as SN38 release at 20 mg/kg, ip measured after 4 hrs by UHPLC-MS/MS analysis; assay type: ADME, organism-based; conditions: in vivo
[27] = Prodrug conversion in stomach of BALB/c mouse assessed as SN38 release at 20 mg/kg, ip measured after 4 hrs by UHPLC-MS/MS analysis; assay type: ADME, organism-based; conditions: in vivo
[28] = Prodrug conversion in lung of BALB/c mouse assessed as SN38 release at 20 mg/kg, ip measured after 4 hrs by UHPLC-MS/MS analysis; assay type: ADME, organism-based; conditions: in vivo
[29] = Prodrug conversion in kidney of BALB/c mouse assessed as SN38 release at 20 mg/kg, ip measured after 4 hrs by UHPLC-MS/MS analysis; assay type: ADME, organism-based; conditions: in vivo
[30] = Prodrug conversion in heart of BALB/c mouse assessed as SN38 release at 20 mg/kg, ip measured after 4 hrs by UHPLC-MS/MS analysis; assay type: ADME, organism-based; conditions: in vivo
[31] = Prodrug conversion in spleen of BALB/c mouse assessed as SN38 release at 20 mg/kg, ip measured after 4 hrs by UHPLC-MS/MS analysis; assay type: ADME, organism-based; conditions: in vivo
Colorectal cancer cell [32] = experiment: Antitumor activity against AOM/DSS-induced orthotopic CRC BALB/c mouse model assessed as reduction in tumor area at 20 mg/kg, ip administered every other day for 2 weeks by dissecting microscopic analysis; assay type: functional, organism-based
[33] = Toxicity in AOM/DSS-induced orthotopic CRC BALB/c mouse model assessed as body weight loss at 20 mg/kg, ip administered every other day for 2 weeks; assay type: organism-based; conditions: in vivo, 336 h
[34] = Prodrug conversion in liver of BALB/c mouse assessed as SN38 release at 20 mg/kg, ip measured after 4 hrs by UHPLC-MS/MS analysis; assay type: ADME, organism-based; conditions: in vivo
[35] = Prodrug conversion in tumor of BALB/c mouse assessed as SN38 release at 20 mg/kg, ip measured after 4 hrs by UHPLC-MS/MS analysis; assay type: ADME, organism-based, Neoplasm; conditions: in vivo
[36] = Drug uptake in plasma of BALB/c mouse at 20 mg/kg, ip measured after 3 hrs by UHPLC-MS/MS analysis; assay type: ADME, organism-based; conditions: in vivo
[37] = Prodrug conversion in intestine of BALB/c mouse assessed as SN38 release at 20 mg/kg, ip measured after 4 hrs by UHPLC-MS/MS analysis; assay type: ADME, organism-based; conditions: in vivo
[38] = Biodistribution in colorectal tumor site of BALB/c mouse at 20 mg/kg, ip measured after 4 hrs by UHPLC-MS/MS analysis; assay type: ADME, organism-based, Neoplasm; conditions: in vivo
[39] = Biodistribution in gastrointestinal tract of BALB/c mouse at 20 mg/kg, ip measured after 4 hrs by UHPLC-MS/MS analysis; assay type: ADME, organism-based; conditions: in vivo
[40] = Prodrug conversion in buffer assessed as SN38 release at 1 uM measured for 2 hrs by UHPLC-MS/MS analysis; assay type: ADME
[41] = Antitumor activity against AOM/DSS-induced orthotopic CRC BALB/c mouse model assessed as reduction in tumor area at 40 mg/kg, iv administered once every 2 days for 2 weeks by dissecting microscopic analysis relative to control; assay type: functional, Colorectal cancer cell; set-up: scale not given: the % may be the effect or the level left
Colorectal cancer cell [42] = experiment: Antitumor activity against AOM/DSS-induced orthotopic CRC BALB/c mouse model assessed as reduction in tumor area administered intravenously once every 2 days for 2 weeks by dissecting microscopic analysis; assay type: functional; conditions: dose 20-40 mg/kg, route iv
[43] = Prodrug conversion in lung of BALB/c mouse assessed as SN38 release at 40 mg/kg, iv measured after 4 hrs by UHPLC-MS/MS analysis; assay type: ADME, organism-based; conditions: in vivo

SMILES | IC50 (COLO 205 [8]) [µM] | IC50 (HT-29 [10]) [µM] | IC50 (HCT-116 [13]) [µM] | Activity [14] | Activity [15] | Activity [16] | Activity [18] | Activity [19] | Activity [20] | Activity [21] | Drug uptake [22] | half-life [23] [h] | Stability [24] | also measured
O=C(CCc1ccc(O)cc1)c1c(O)cc(OCCOCCOCCS)cc1O[C@@H]1O[C@H](CO)[C@@H](O)[C@H](O)[C@H]1O | > 100 | > 100 | > 100 | – | – | – | – | – | – | – | – | – | – | Activity [1]: Non-Toxic; IC50 (COLO 205 [2]): 0.14 µM; IC50 (HT-29 [3]): 0.33 µM; IC50 (HCT-116 [4]): 0.0454 µM; Activity [5]: Non-Toxic; Activity [6]: Non-Toxic; Activity [7]: Non-Toxic; Activity [9]: Non-Toxic; Activity [11]: Non-Toxic; Activity [12]: Non-Toxic
CCc1c2c(nc3ccc(OCc4ccc(NC(=O)[C@H](CCCNC(N)=O)NC(=O)[C@@H](NC(=O)CCCCN5C(=O)CC(SCCOCCOCCOc6cc(O)c(C(=O)CCc7ccc(O)cc7)c(O[C@@H]7O[C@H](CO)[C@@H](O)[C@H](O)[C@H]7O)c6)C5=O)C(C)C)cc4)cc13)-c1cc3c(c(=O)n1C2)COC(=O)[C@]3(O)CC (some centres undefined) | 15.4 | > 100 | 3.25 | Non-Toxic | Non-Toxic | Non-Toxic | Non-Toxic | Non-Toxic | Non-Toxic | Non-Toxic | Active | 36 | Stable | Activity [17]: 45%; Activity [25]: 55%
CCc1c2c(nc3ccc(OC(=O)OCCSSCCOCCOCCOc4cc(O)c(C(=O)CCc5ccc(O)cc5)c(O)c4)cc13)-c1cc3c(c(=O)n1C2)COC(=O)[C@]3(O)CC | 0.57 | 0.31 | 0.0341 | – | – | – | – | – | – | – | Active | 0.833 | – | Drug metabolism [26]: Metabolite_Detected; Drug metabolism [27]: Metabolite_Detected; Drug metabolism [28]: Metabolite_Detected; Drug metabolism [29]: Metabolite_Detected; Drug metabolism [30]: Metabolite_Detected; Drug metabolism [31]: Metabolite_Detected; Activity (Colorectal cancer cell [32]): Active; Activity [33]: Non-Toxic; Drug metabolism [34]: Metabolite_Detected; Drug metabolism [35]: Metabolite_Detected; Drug uptake [36]: Not Active; Drug metabolism [37]: Metabolite_Detected; Drug uptake [38]: Active; Drug uptake [39]: Active
CCc1c2c(nc3ccc(OCc4ccc(NC(=O)[C@H](CCCNC(N)=O)NC(=O)[C@@H](NC(=O)CCCCN5C(=O)CC(SCCOCCOCCOc6cc(O)c(C(=O)CCc7ccc(O)cc7)c(O)c6)C5=O)C(C)C)cc4)cc13)-c1cc3c(c(=O)n1C2)COC(=O)[C@]3(O)CC (some centres undefined) | 4.59 | > 100 | 7.43 | Non-Toxic | Non-Toxic | Non-Toxic | Non-Toxic | Non-Toxic | Non-Toxic | Non-Toxic | Active | 36 | Stable | Drug metabolism [40]: Not Active; Activity [41]: 75%; Activity (Colorectal cancer cell [42]): Dose-Dependent Effect; Drug metabolism [43]: Metabolite_Notdetected
